Measurements: patent US9975906B2, “Tricyclic heterocycle derivatives having HIV replication inhibitory effect” (Shionogi & Co., Ltd., priority 2014, dated 2018)
Values after ≈ are worked out from the molar mass of the structure shown. Like-named read-outs stand apart in the source and are kept apart here.

What was measured:
HIV (HTLV-IIIB strain) = assay: HIV Replication Inhibition Assay; format: cell-based; conditions: Human immunodeficiency virus 1, MT4, 96 h, MT-4 cells, cultured four days, MTT, concentration at which cell cytotoxicity by virus is inhibited 50%
Protocol: HIV (HTLV-IIIB strain) persistent infected human T cell strain Molt-4 clone 8 was cultured in 10% Fetal Bovine Serum-containing RPMI-1640 medium and the supernatant was filtered, then the virus titer was measured and the solution was stored at −80° C. Each anti-human immunodeficiency virus active substance was diluted with the above cultured medium to the designated concentration, which was dispensed into 96 well micro plate by 50 μL. Next, a MT-4 cell suspended liquid was dispensed by 100 μL (2.5×10^4 cells), then the above HIV-containing supernatant diluted with the above cultured medium was added thereto by 50 μl (60 pfu (plaque forming unit)).
The obtained mixture was cultured at 37° C. in CO2 incubator for four days, then 3-(4,5-dimethylthiazole-2-yl)-2,5-diphenyltetrazolynium bromide (MTT) 5 mg/mL in PBS was added to each well by 30 μL, followed by 1 hr-cultivation. In this step, as formazan was precipitated by reduction of MTT in living cells, the cell supernatant was removed from all was by 150 μL, then a 150 μL of solution (10% Triton X-100 and 0.4% (v/v)-HCl containing isopropanol) was added thereto, followed by shaking with a plate mixer, to elute formazan. The formazan was measured with a microreader at OD: 560 nm and 690 nm (reference wavelength) and the result was compared with the reference. EC50 means the compound concentration at which cell cytotoxicity by virus is inhibited 50%.

CYP3A4 = target: T1, CYP3A4 (Homo sapiens, UniProt P08684); assay: CYP3A4 (MDZ) MBI Test; format: in vitro ADME; conditions: pooled human liver microsomes, 10 μmol/L MDZ, pre-reaction 0 or 30 minutes
T1 construct: enzyme, pooled human hepatic microsome 0.2 mg protein/mL; from tissue
T1 sequence (P08684 whole entry): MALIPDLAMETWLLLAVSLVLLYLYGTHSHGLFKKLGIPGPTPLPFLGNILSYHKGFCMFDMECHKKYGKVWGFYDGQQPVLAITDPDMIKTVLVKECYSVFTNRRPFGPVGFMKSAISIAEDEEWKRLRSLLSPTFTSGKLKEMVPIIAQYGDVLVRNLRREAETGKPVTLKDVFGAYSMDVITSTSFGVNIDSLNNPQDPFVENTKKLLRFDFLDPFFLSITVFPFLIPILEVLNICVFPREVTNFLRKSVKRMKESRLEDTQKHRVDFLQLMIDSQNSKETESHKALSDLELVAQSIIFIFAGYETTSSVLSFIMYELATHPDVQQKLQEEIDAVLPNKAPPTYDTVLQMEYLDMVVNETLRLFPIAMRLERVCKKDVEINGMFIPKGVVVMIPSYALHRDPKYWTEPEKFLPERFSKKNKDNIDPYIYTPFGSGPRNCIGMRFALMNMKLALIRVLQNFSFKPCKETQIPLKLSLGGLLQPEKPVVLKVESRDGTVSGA
Protocol: CYP3A4 (MDZ) MBI test is a test of investigating mechanism based inhibition (MBI) ability on CYP3A4 inhibition of a compound by enhancement of a metabolism reaction. CYP3A4 inhibition is evaluated using 1-hydroxylation reaction of midazolam (MDZ) by pooled human liver microsomes as an index.
The reaction conditions are as follows: substrate, 10 μmol/L MDZ; pre-reaction time, 0 or 30 minutes; substrate reaction time, 2 minutes; reaction temperature, 37° C.; protein content of pooled human liver microsomes, at pre-reaction time 0.5 mg/mL, at reaction time 0.05 mg/mL (at 10-fold dilution); concentrations of the compound of the present invention, 1, 5, 10, 20 μmol/L (four points).
Pooled human liver microsomes in K-Pi buffer (pH 7.4) and a solution of the compound of the present invention as a pre-reaction solution were added to a 96-well plate at the composition of the pre-reaction. […] After centrifuged at 3000 rpm for 15 minutes, 1-hydroxymidazolam in the supernatant was quantified by LC/MS/MS.
The sample adding DMSO to a reaction system instead of a solution of the compound of the present invention is adopted as a control (100%) because DMSO is used as a solvent to dissolve the compound of the present invention. […] Shifted IC value is calculated as “IC of preincubation at 0 min/IC of preincubation at 30 min”. […]

Powder Solubility Test = format: physicochemical; conditions: thermodynamic from solid, shaken 1 hour at 37° C.
Protocol: Appropriate amounts of the test substances are put into appropriate containers. To the respective containers are added 200 μL of JP-1 fluid (sodium chloride 2.0 g, hydrochloric acid 7.0 mL and water to reach 1000 mL), 200 μL of JP-2 fluid (phosphate buffer (pH 6.8) 500 mL and water 500 mL), and 200 μL of 20 mmol/L TCA (sodium taurocholate)/JP-2 fluid (TCA 1.08 g and JP-2 fluid to reach […]). IN the case that all amount of the test compound is dissolved after the addition of the test fluid, the test compound is added as appropriate. The containers are sealed, and shaken for 1 hour at 37° C. The mixtures are filtered, and 100 μL of methanol is added to each of he filtrate […] so that the filtrates are two-fold diluted. The dilution ratio may be changed if necessary. The dilutions are observed for bubbles and precipitates, and then the containers are sealed and shaken. Quantification is performed by HPLC with an absolute calibration method.

solubility at 1 h (Powder Solubility Test; aqueous buffer, JP-2 fluid (phosphate buffer pH 6.8), read-out: powder solubility, JP-2 fluid): 0.603 µg/mL (≈ 0.899 µM)
solubility at 1 h (Powder Solubility Test; pH 1.2, simulated gastric fluid, JP-1 fluid, read-out: powder solubility, JP-1 fluid): > 1000 µg/mL
solubility at 1 h (Powder Solubility Test; pH 6.8, fassgf or other biorelevant, 20 mmol/L TCA (sodium taurocholate)/JP-2 fluid, read-out: powder solubility, 20 mmol/L TCA/JP-2 fluid): > 1000 µg/mL
Compound: Cc1ccc(-c2c([C@H](OC(C)(C)C)C(=O)O)c(C)c3c4c2cc(-c2ccnc(-c5ccc6c(cnn6C)c5)c2)n4CCN3CCN(C)C)cc1 [Compound I-034]
EC50 (HIV (HTLV-IIIB strain)): 2.4 nM
CYP3A4 (MDZ) MBI (shifted IC) (CYP3A4): (−) (When a shifted IC is 1.0 or less, this is defined as negative)
